From patent US20240374739A1, “BILE ACID CONJUGATE” (Curtin University, priority 2021, published 2024)
Entries after “also recorded” stand apart in the source; their conditions may differ.

Experiments:
[1] = tested on: Neurodegenerated cells (perinatal tissue derived human stem cell model for Alzheimer's disease); assay: Lactate dehydrogenase (LDH) assay, in vitro model of Alzheimer's disease; assay type: cell-based; conditions: probucol 20 μM, SPQ 10 μM, HA-1 10 μM, rivastigmine 2 μM, 24 hours; compared to ND cells
Protocol: (§1) Perinatal tissue derived human stem cell model for Alzheimer's disease (AD) was prepared using proprietary protocols to test the effect of new drug entities. Drug treatment was for 24 h in all the assays.
LDH leakage is a well characterised marker of cellular membrane damage and increase in indicative of lactate deficit, is a hallmark of AD.

[2] = tested on: Neurodegenerated cells (Alzheimer's disease model); assay: ROS (reactive oxygen species) assay, Alzheimer's disease model; assay type: cell-based, human; conditions: AD model
Protocol: as §1
Increase in oxidative stress is associated with accumulation of amyloid beta seen in the AD model. Increased oxidative stress and nitric oxide levels lead to apoptosis and evoke cytotoxic effects on neurons.

[3] = tested on: Neurodegenerated cells (Parkinson's disease model); assay: Immunocytochemical localization of PD specific and neuronal markers; assay type: cell-based, human; conditions: fluorescence micrographs
Protocol: Perinatal tissue derived human stem cell model for Parkinson's disease (PD) was prepared using proprietary protocols to test the effect of new drug entities. Drug treatment was for 24 hours in all the assays.
For further confirmation and protein localization of neuronal, dopaminergic and PD specific neurodegenerative markers, we performed immunolocalization for synapsin I, Nurr1, TH and α-synuclein respectively.
Fluorescence micrographs of synapsin 1 positive neuronal cells were obtained and the effects of probucol, SPQ and HA-1 on neurodegeneration model with L-Dopa as positive control were compared.
Fluorescence micrographs of Nurr1 positive dopaminergic neuronal cells were obtained and the effects of probucol, SPQ and HA-1 on neurodegeneration model with L-Dopa as positive control were compared.
Fluorescence micrographs of TH positive dopaminergic neuronal cells were obtained and the effects of probucol, SPQ and HA-1 on neurodegeneration model with L-Dopa as positive control were compared.
Fluorescence micrographs of α-synuclein immunolocalization were obtained and the effects of probucol, SPQ and HA-1 on neurodegeneration model with L-Dopa as positive control were compared.

[4] = tested on: Rats subjected to sub-concussion (SC); assay: Beam walk test, brain injury (sub-concussion) study (Experimental Example 3); assay type: in vivo
Text: Repeated sub-concussive head impacts are reported to impair psychomotor function. Rats were subjected to sham procedure, sub-concussion (SC) with control diet (AlN93M), SC with probucol, SC with aged garlic extract (AGE), or SC with HA-1 for 12 weeks.
Both rotarod and beam walk tests assess neuromotor function. On beam walk, the higher the slips show the more impairment. On rotarod, the lower the latency indicates the more impairment.

diabetic db/db mice [5] = assay: Passive Avoidance Test in diabetic db/db mice (Experimental Example 5); assay type: in vivo; conditions: administered from 5 weeks of age, tested at 14 weeks
Protocol: Cognitive function in diabetic db/db mice was tested with Passive Avoidance and Novel Object Recognition tests. For both tests, the higher the value, the better the memory.
The mice were administered with either probucol, HA-1 or apoCIII antisense from 5 weeks of age, and cognitive performance was tested at 14 weeks of age.

[6] = tested on: rat model of repeated sub-concussion; assay: Rotarod test, rat model of repeated sub-concussion (Experimental Example 6); assay type: in vivo, Female PVG rats; conditions: rats, 12-week repeated sub-concussion; probucol 0.1% w/w, HA-1 0.2% w/w in diet (FIG. 20A)
Text: (§2) Female PVG rats aged 5-7 weeks were used. Under complete anaesthesia with isoflurane, a 25 g weight was dropped onto lambda of the skull from a 1 m height. This was repeated consecutively for 10 times per procedure. The procedure was repeated 3 times per week (i.e., Monday, Wednesday, Friday) for the duration of 12 weeks. Sham group rats received the same procedure without the weight drops. The probucol treatment group received probucol which was supplemented into the diet at 0.1% w/w. The HA-1 treatment group received HA-1 also in the diet at 0.2% w/w for the entire duration of the study.
(§3) After the completion of 12-week sub-concussion procedures, neuromotor function was tested with established rotarod and beamwalk tests. On beamwalk, the higher the slips show, the more impairment. On rotarod, the lower the latency indicates the more impairment.

[7] = tested on: rat model of repeated sub-concussion; assay: Beamwalk test, rat model of repeated sub-concussion (Experimental Example 6); assay type: in vivo, Female PVG rats; conditions: rats, 12-week repeated sub-concussion, 2 cm beam; probucol 0.1% w/w, HA-1 0.2% w/w in diet (FIG. 20B)
Text: as §2, §3

[8] = tested on: rat model of repeated sub-concussion; assay: Blood-brain barrier integrity (IgG extravasation), rat model of repeated sub-concussion; assay type: in vivo, Female PVG rats; conditions: rats, 12-week repeated sub-concussion
Text: as §2
(§4) The rats were then sacrificed to obtain brain tissue for further analyses.
The increase of IgG extravasation in SC rats indicates disruption of the BBB, allowing blood-borne IgG to leak into the brain.

[9] = tested on: rat model of repeated sub-concussion; assay: Neuronal oxidative stress (8dOHG expression), rat model of repeated sub-concussion; assay type: in vivo, Female PVG rats; conditions: rats, 12-week repeated sub-concussion
Text: as §2, §4

diabetic db/db mice [10] = assay: Plasma amyloid-β (Aβ40, Aβ42, oligomers, Aβ42/40 ratio) in diabetic db/db mice; assay type: in vivo
Text: In this study, 4-5 week old diabetic db/db mice were put onto a diet containing probucol 0.1% (w/w) or HA-1 0.2% (w/w) for either 10 or 24 weeks, till the age of 14 or 28 weeks, respectively. Passive avoidance test was used to assess short-term memory. Subsequently, the mice were sacrificed to obtain plasma and brain tissue samples for further analyses. […]

diabetic db/db mice [11] = assay: Oxidative stress and neuroinflammation (8dOHG, GFAP, Iba-1 expression) in diabetic db/db mice; assay type: in vivo; conditions: for expression of 8dOHG in HPF: db/db mice (FIG. 28A); for expression of 8dOHG in CTX: db/db mice (FIG. 28B); for expression of GFAP in HPF: db/db mice (FIG. 28C); for expression of GFAP in CTX: db/db mice (FIG. 28D); for expression of Iba-1 in HPF: db/db mice (FIG. 28E); for expression of Iba-1 in CTX: db/db mice (FIG. 28F)
Text: In this study, 4-5 week old diabetic db/db mice were put onto a diet containing probucol 0.1% (w/w) or HA-1 0.2% (w/w) for either 10 or 24 weeks, till the age of 14 or 28 weeks, respectively. Passive avoidance test was used to assess short-term memory. Subsequently, the mice were sacrificed to obtain plasma and brain tissue samples for further analyses.
GFAP is a marker of astrocyte activation, which may confer anti-inflammatory effect.
Iba-1 expression indicates microglial activation, which is a surrogate marker of neuroinflammation.

OC-1 cells = assay: Cobalt chloride hypoxia assay; assay type: cell-based; conditions: cells pre-treated with CoCl2 at 100 μM for 24 hours, microscopic examination
Protocol: This assay is used to determine whether an intervention can reverse hypoxic-induced cell death brought about by cobalt chloride. For this assay, cells are pre-treated with CoCl2 at 100 μM for 24 hours, followed by microscopic examination of cell morphology and viability.

[12] = sub-concussion, 1, 2 and 3 cm beam, at 12 weeks
[13] = sub-concussion, 2 cm beam, after 6 weeks

Structure (SMILES)	LDH activity / LDH release [1]	intracellular reactive oxidative stress (ROS) [2]	Nurr1 (immunolocalization) [3]	TH (immunolocalization) [3]	synapsin protein expression (immunolocalization) [3]	number of slips in beam walk test [4, 12]	number of slips in beam walk test [4, 13]	Passive Avoidance Test latency (short-term memory) (diabetic db/db mice [5])	rotarod latency [6]	foot slips in beamwalk test [7]	IgG extravasation in cortex (CTX) [8]	IgG extravasation in hippocampal formation (HPF) [8]	expression of 8dOHG (oxidative stress) in HPF and CTX [9]	plasma Aβ40 (diabetic db/db mice [10]; 14 weeks of age)	plasma Aβ42 (diabetic db/db mice [10]; 14 weeks of age)	plasma concentrations of Aβ oligomers (diabetic db/db mice [10]; 14 weeks of age)	plasma concentrations of Aβ oligomers (diabetic db/db mice [10]; 28 weeks of age)	expression of 8dOHG in HPF (diabetic db/db mice [11])	expression of 8dOHG in CTX (diabetic db/db mice [11])	expression of GFAP in HPF (diabetic db/db mice [11])	also measured
CC(C)(Sc1cc(C(C)(C)C)c(O)c(C(C)(C)C)c1)Sc1cc(C(C)(C)C)c(O)c(C(C)(C)C)c1 [probucol, 2,6-ditert-butyl-4-[2-(3,5-ditert-butyl-4-hydroxyphenyl)sulfanylpropan-2-ylsulfanyl]phenol]	decreased significantly LDH activity	decrease the level of ROS	more pronounced	more pronounced	clear restoration of synapsin expression	did not show significant preventative effects	did not indicate any beneficial effects	completely prevented the memory loss	did not show any changes	modestly attenuated	some reduction in the CTX IgG extravasation	no protection against BBB disruption in HPF	some increase of 8dOHG particularly in the CTX	did not change plasma Aβ40 levels	no beneficial effect	not observed	not observed	attenuated	attenuated	no benefits	expression of GFAP in CTX (diabetic db/db mice [11]): ameliorated similarly; expression of Iba-1 in HPF (diabetic db/db mice [11]): no beneficial effects; expression of Iba-1 in CTX (diabetic db/db mice [11]): no beneficial effects; cell morphology (OC-1 cells): normal morphology
CC(=O)O[C@@H]1CC[C@@]2(C)[C@H](CC[C@@H]3[C@@H]2CC[C@]2(C)[C@@H]([C@H](C)CCC(=O)Oc4c(C(C)(C)C)cc(SC(C)(C)Sc5cc(C(C)(C)C)c(O)c(C(C)(C)C)c5)cc4C(C)(C)C)CC[C@@H]32)C1 [HA-1, 2,6-di-tert-butyl-4-((2-((3,5-di-tert-butyl-4-hydroxyphenyl)thio)propan-2-yl)thio)phenyl (4R)-4-[(3R,5R,8R,9S,10S,13R,14S,17R)-3-acetoxy-10,13-dimethyl-2,3,4,5,6,7,8,9,11,12,14,15,16,17-tetradecahydro-1H-cyclopenta[a]phenanthren-17-yl]pentanoate]	decreased significantly LDH activity	decrease the level of ROS	more pronounced	more pronounced	clear restoration of synapsin expression	did not show significant preventative effects	significant reduction in slips	completely restore the memory; also recorded: equivalent latency to Neg control and probucol group mice	significant increase in the latency	completely normalised	more effective than probucol in attenuating BBB disruption	more effective than probucol in attenuating BBB disruption	substantially attenuated the cerebral oxidative stress levels	did not change plasma Aβ40 levels	remarkably attenuated	significantly reduced	significantly reduced	better efficacy particularly in HPF	attenuated	significant recovery	accumulation of α-synuclein (immunolocalization) [3]: least expression; Aβ42/40 ratio (diabetic db/db mice [10]; 14 weeks of age): remarkably reduced; Aβ42/40 ratio (diabetic db/db mice [10]; 28 weeks of age): remarkably reduced; plasma Aβ40 (diabetic db/db mice [10]; 28 weeks of age): increased plasma Aβ40 levels; plasma Aβ42 (diabetic db/db mice [10]; 28 weeks of age): significantly reduced; expression of GFAP in CTX (diabetic db/db mice [11]): ameliorated similarly; expression of Iba-1 in HPF (diabetic db/db mice [11]): substantially reduced the expression of Iba-1; expression of Iba-1 in CTX (diabetic db/db mice [11]): substantially reduced the expression of Iba-1; cell morphology (OC-1 cells): optimal morphology
CC1(C)SC2(C=C(C(C)(C)C)C(=O)C(C(C)(C)C)=C2)C2(C=C(C(C)(C)C)C(=O)C(C(C)(C)C)=C2)S1 [SPQ, 2,4,9,11-tetrakis(1,1-dimethylethyl)-14,14-dimethyl-13,15-dithiadispiro[5.0.5.3]pentadeca-1,4,8,11-tetraene-3,10-dione]	decreased significantly LDH activity	decrease the level of ROS	more pronounced	more pronounced	clear restoration of synapsin expression	–	–	–	–	–	–	–	–	–	–	–	–	–	–	–	–
